Molecular target: α4β1 integrin (Homo sapiens, UniProt P05556+P13612)
Experiment: a4b1 IC50 (inhibition of α4β1 integrin; no method described)
Format: binding

Chain of α4β1 integrin (P13612 34-1032): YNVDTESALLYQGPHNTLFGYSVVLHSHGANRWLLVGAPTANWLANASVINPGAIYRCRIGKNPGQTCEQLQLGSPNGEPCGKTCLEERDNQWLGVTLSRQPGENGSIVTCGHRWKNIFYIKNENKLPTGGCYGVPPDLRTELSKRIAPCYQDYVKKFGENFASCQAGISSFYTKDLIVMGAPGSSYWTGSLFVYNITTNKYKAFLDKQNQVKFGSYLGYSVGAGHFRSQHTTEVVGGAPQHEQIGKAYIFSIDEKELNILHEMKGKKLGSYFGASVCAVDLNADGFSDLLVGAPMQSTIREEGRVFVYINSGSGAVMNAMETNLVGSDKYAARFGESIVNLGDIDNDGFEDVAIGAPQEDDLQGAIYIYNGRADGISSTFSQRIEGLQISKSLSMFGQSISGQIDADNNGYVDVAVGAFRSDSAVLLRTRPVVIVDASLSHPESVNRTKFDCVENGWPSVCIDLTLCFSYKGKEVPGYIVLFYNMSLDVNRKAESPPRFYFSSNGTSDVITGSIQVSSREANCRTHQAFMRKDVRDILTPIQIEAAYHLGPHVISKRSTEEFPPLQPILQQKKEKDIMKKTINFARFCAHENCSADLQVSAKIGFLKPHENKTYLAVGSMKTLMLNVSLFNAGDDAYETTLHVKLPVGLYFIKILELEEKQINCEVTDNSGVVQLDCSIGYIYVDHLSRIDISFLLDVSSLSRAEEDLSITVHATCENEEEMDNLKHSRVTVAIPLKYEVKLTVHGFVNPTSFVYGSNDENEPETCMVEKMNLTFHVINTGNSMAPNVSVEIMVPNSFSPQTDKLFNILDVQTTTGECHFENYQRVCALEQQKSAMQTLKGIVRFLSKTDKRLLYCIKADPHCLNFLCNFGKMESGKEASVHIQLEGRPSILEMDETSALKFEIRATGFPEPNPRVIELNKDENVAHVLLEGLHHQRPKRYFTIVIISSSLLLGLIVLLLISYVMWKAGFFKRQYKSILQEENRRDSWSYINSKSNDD
Chain of α4β1 integrin (P05556 21-798): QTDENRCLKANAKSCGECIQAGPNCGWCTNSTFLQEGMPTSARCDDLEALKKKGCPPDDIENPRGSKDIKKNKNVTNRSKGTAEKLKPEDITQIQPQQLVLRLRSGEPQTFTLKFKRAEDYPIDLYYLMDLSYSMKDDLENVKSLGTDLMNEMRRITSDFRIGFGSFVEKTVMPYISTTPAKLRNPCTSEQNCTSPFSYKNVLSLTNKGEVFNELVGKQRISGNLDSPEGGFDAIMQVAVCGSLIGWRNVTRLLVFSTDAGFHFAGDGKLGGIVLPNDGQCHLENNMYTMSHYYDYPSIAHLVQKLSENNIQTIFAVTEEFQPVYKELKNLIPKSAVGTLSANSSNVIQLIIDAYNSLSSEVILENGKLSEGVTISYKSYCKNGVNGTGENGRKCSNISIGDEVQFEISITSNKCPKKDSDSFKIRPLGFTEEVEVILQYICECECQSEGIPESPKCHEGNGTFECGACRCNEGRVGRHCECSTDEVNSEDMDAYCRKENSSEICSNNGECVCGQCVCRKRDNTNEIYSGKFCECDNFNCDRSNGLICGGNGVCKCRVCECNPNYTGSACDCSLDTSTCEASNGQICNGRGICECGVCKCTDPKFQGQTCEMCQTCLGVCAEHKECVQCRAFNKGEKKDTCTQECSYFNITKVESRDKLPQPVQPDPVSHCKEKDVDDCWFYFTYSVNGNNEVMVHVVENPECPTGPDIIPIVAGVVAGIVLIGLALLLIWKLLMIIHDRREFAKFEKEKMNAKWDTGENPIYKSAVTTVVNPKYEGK

Row | IC50 [µM] | Structure (SMILES)
1 | ≤ 0.02 | Cc1ccccc1Cc1ccc([C@H](CC(=O)O)NC(=O)Nc2c(O)cc(C)n(C)c2=O)s1 [Compound 2-15, sodium (S)-3-(3-(1,6-dimethyl-4-oxido-2-oxo-1,2-dihydropyridin-3-yl)ureido)-3-(5-(2-methylbenzyl)thiophen-2-yl)propanoate]
2 | > 0.2 | Cc1ccccc1C(F)(F)c1cccc([C@@H](CC(=O)O)NC(=O)Nc2c(O)ccn(C)c2=O)c1 [Compound 3-66, sodium (R)-3-(3-(difluoro(o-tolyl)methyl)phenyl)-3-(3-(1-methyl-4-oxido-2-oxo-1,2-dihydropyridin-3-yl)ureido)propanoate]
3 | < 0.02 | Cc1ccccc1Oc1cccc([C@H](CC(=O)O)NC(=O)Nc2c(O)ccn(C)c2=O)c1 [Compound 3-67, sodium (S)-3-(3-(1-methyl-4-oxido-2-oxo-1,2-dihydropyridin-3-yl)ureido)-3-(3-(o-tolyloxy)phenyl)propanoate]
4 | < 0.02 | COc1ccccc1Oc1cccc([C@H](CC(=O)O)NC(=O)Nc2c(O)ccn(C)c2=O)c1 [Compound 3-68, sodium (S)-3-(3-(2-methoxyphenoxy)phenyl)-3-(3-(1-methyl-4-oxido-2-oxo-1,2-dihydropyridin-3-yl)ureido)propanoate]
5 | < 0.02 | Cn1ccc(O)c(NC(=O)N[C@@H](CC(=O)O)c2cccc(Oc3ccccc3Cl)c2)c1=O [Compound 3-69, sodium (S)-3-(3-(2-chlorophenoxy)phenyl)-3-(3-(1-methyl-4-oxido-2-oxo-1,2-dihydropyridin-3-yl)ureido)propanoate]
6 | < 0.02 | Cc1ccc(F)cc1Cc1cccc([C@H](CC(=O)O)NC(=O)Nc2c(O)ccn(C)c2=O)c1 [Compound 3-70, sodium (S)-3-(3-(5-fluoro-2-methylbenzyl)phenyl)-3-(3-(1-methyl-4-oxido-2-oxo-1,2-dihydropyridin-3-yl)ureido)propanoate]
7 | < 0.2 | COc1ccccc1Oc1ccc([C@H](CC(=O)O)NC(=O)Nc2c(O)ccn(C)c2=O)cc1 [Compound 3-72, sodium (S)-3-(4-(2-methoxyphenoxy)phenyl)-3-(3-(1-methyl-4-oxido-2-oxo-1,2-dihydropyridin-3-yl)ureido)propanoate]
8 | < 0.2 | COc1cccc(Oc2ccc([C@H](CC(=O)O)NC(=O)Nc3c(O)ccn(C)c3=O)cc2)c1 [Compound 3-73, sodium (S)-3-(4-(3-methoxyphenoxy)phenyl)-3-(3-(1-methyl-4-oxido-2-oxo-1,2-dihydropyridin-3-yl)ureido)propanoate]
9 | < 0.02 | Cc1ccccc1Oc1ccc([C@H](CC(=O)O)NC(=O)Nc2c(O)ccn(C)c2=O)cc1 [Compound 3-74, sodium (S)-3-(3-(1-methyl-4-oxido-2-oxo-1,2-dihydropyridin-3-yl)ureido)-3-(4-(o-tolyloxy)phenyl)propanoate]
10 | < 0.2 | Cc1ccc(Oc2ccc([C@H](CC(=O)O)NC(=O)Nc3c(O)ccn(C)c3=O)cc2)cc1 [Compound 3-75, sodium (S)-3-(3-(1-methyl-4-oxido-2-oxo-1,2-dihydropyridin-3-yl)ureido)-3-(4-(p-tolyloxy)phenyl)propanoate]
11 | < 0.02 | Cn1ccc(O)c(NC(=O)N[C@@H](CC(=O)O)c2ccc(Cc3ccccc3)cc2)c1=O [Compound 3-76, sodium (S)-3-(4-benzylphenyl)-3-(3-(1-methyl-4-oxido-2-oxo-1,2-dihydropyridin-3-yl)ureido)propanoate]
12 | < 0.2 | Cc1ccccc1Cc1ccc([C@H](CC(=O)O)NC(=O)Nc2c(O)ccn(C)c2=O)cc1 [Compound 3-77, sodium (S)-3-(3-(1-methyl-4-oxido-2-oxo-1,2-dihydropyridin-3-yl)ureido)-3-(4-(2-methylbenzyl)phenyl)propanoate]
13 | > 0.2 | Cc1cccc(Cc2ccc([C@H](CC(=O)O)NC(=O)Nc3c(O)ccn(C)c3=O)cc2)c1 [Compound 3-78, sodium (S)-3-(3-(1-methyl-4-oxido-2-oxo-1,2-dihydropyridin-3-yl)ureido)-3-(4-(3-methylbenzyl)phenyl)propanoate]
14 | > 0.2 | Cc1ccc(Cc2ccc([C@H](CC(=O)O)NC(=O)Nc3c(O)ccn(C)c3=O)cc2)cc1 [Compound 3-79, sodium (S)-3-(3-(1-methyl-4-oxido-2-oxo-1,2-dihydropyridin-3-yl)ureido)-3-(4-(4-methylbenzyl)phenyl)propanoate]
15 | < 0.02 | CCc1ccccc1Cc1cccc([C@H](CC(=O)O)NC(=O)Nc2c(O)ccn(C)c2=O)c1 [Compound 3-80, sodium (S)-3-(3-(2-ethylbenzyl)phenyl)-3-(3-(1-methyl-4-oxido-2-oxo-1,2-dihydro-pyridin-3-yl)ureido)propanoate]
16 | < 0.02 | Cc1ccccc1Cc1cccc([C@H](CC(=O)O)NC(=O)Nc2c(O)ccn(C)c2=O)c1 [Compound 3-81, sodium (S)-3-(3-(1-methyl-4-oxido-2-oxo-1,2-dihydropyridin-3-yl)ureido)-3-(3-(2-methylbenzyl)phenyl)propanoate]

Row | IC50 [µM] | Structure (SMILES)
17 | < 0.02 | Cc1ccc(Cc2cccc([C@H](CC(=O)O)NC(=O)Nc3c(O)ccn(C)c3=O)c2)cc1 [Compound 3-82, sodium (S)-3-(3-(1-methyl-4-oxido-2-oxo-1,2-dihydropyridin-3-yl)ureido)-3-(3-(4-methylbenzyl)phenyl)propanoate]
18 | < 0.2 | Cc1cccc(Cc2cccc([C@H](CC(=O)O)NC(=O)Nc3c(O)ccn(C)c3=O)c2)c1 [Compound 3-83, sodium (S)-3-(3-(1-methyl-4-oxido-2-oxo-1,2-dihydropyridin-3-yl)ureido)-3-(3-(3-methylbenzyl)phenyl)propanoate]
19 | < 0.02 | Cc1cccc(Oc2cccc([C@H](CC(=O)O)NC(=O)Nc3c(O)ccn(C)c3=O)c2)c1 [Compound 3-84, sodium (S)-3-(3-(1-methyl-4-oxido-2-oxo-1,2-dihydropyridin-3-yl)ureido)-3-(3-(m-tolyloxy)phenyl)propanoate]
20 | < 0.02 | Cc1ccc(Oc2cccc([C@H](CC(=O)O)NC(=O)Nc3c(O)ccn(C)c3=O)c2)cc1 [Compound 3-85, sodium (S)-3-(3-(1-methyl-4-oxido-2-oxo-1,2-dihydropyridin-3-yl)ureido)-3-(3-(p-tolyloxy)phenyl)propanoate]
21 | < 0.02 | Cn1ccc(O)c(NC(=O)N[C@@H](CC(=O)O)c2cccc(Oc3ccc(F)cc3F)c2)c1=O [Compound 3-86, sodium(S)-3-(3-(2,4-difluorophenoxy)phenyl)-3-(3-(1-methyl-4-oxido-2-oxo-1,2-dihydropyridin-3-yl)ureido)propanoate]
22 | < 0.02 | Cc1cccc(C)c1Oc1cccc([C@H](CC(=O)O)NC(=O)Nc2c(O)ccn(C)c2=O)c1 [Compound 3-87, sodium(S)-3-(3-(2,6-dimethylphenoxy)phenyl)-3-(3-(1-methyl-4-oxido-2-oxo-1,2-dihydropyridin-3-yl)ureido)propanoate]
23 | < 0.02 | Cn1ccc(O)c(NC(=O)N[C@@H](CC(=O)O)c2cccc(Cc3ccccc3C(F)(F)F)c2)c1=O [Compound 3-88, sodium (S)-3-(3-(1-methyl-4-oxido-2-oxo-1,2-dihydropyridin-3-yl)ureido)-3-(3-(2-(trifluoromethyl)benzyl)phenyl)propanoate]
24 | < 0.02 | Cn1ccc(O)c(NC(=O)N[C@@H](CC(=O)O)c2cccc(Cc3cccc(C(F)(F)F)c3)c2)c1=O [Compound 3-89, sodium (S)-3-(3-(1-methyl-4-oxido-2-oxo-1,2-dihydropyridin-3-yl)ureido)-3-(3-(3-(trifluoromethyl)benzyl)phenyl)propanoate]
25 | < 0.02 | Cn1ccc(O)c(NC(=O)N[C@@H](CC(=O)O)c2cccc(Cc3ccc(C(F)(F)F)cc3)c2)c1=O [Compound 3-90, sodium (S)-3-(3-(1-methyl-4-oxido-2-oxo-1,2-dihydropyridin-3-yl)ureido)-3-(3-(4-(trifluoromethyl)benzyl)phenyl)propanoate]
26 | < 0.02 | Cn1ccc(O)c(NC(=O)N[C@@H](CC(=O)O)c2cccc(Cc3ccccc3OC(F)F)c2)c1=O [Compound 3-91, sodium(S)-3-(3-(2-(difluoromethoxy)benzyl)phenyl)-3-(3-(1-methyl-4-oxido-2-oxo-1,2-dihydropyridin-3-yl)ureido) propanoate]
27 | < 0.02 | COc1ccccc1Cc1cccc([C@H](CC(=O)O)NC(=O)Nc2c(O)ccn(C)c2=O)c1 [Compound 3-92]
28 | < 0.02 | Cn1ccc(O)c(NC(=O)N[C@@H](CC(=O)O)c2cccc(Cc3ccccc3F)c2)c1=O [Compound 3-93, sodium (S)-3-(3-(2-fluorobenzyl)phenyl)-3-(3-(1-methyl-4-oxido-2-oxo-1,2-dihydro-pyridin-3-yl)ureido)propanoate]
29 | < 0.02 | Cc1cccc(C)c1Cc1cccc([C@H](CC(=O)O)NC(=O)Nc2c(O)ccn(C)c2=O)c1 [Compound 3-94, sodium (S)-3-(3-(2,6-dimethylbenzyl)phenyl)-3-(3-(1-methyl-4-oxido-2-oxo-1,2-dihydropyridin-3-yl)ureido)propanoate]
30 | < 0.02 | Cc1ccccc1Cc1ccc([C@H](CC(=O)O)NC(=O)Nc2c(O)ccn(C)c2=O)s1 [Compound 3-95, sodium (S)-3-(3-(1-methyl-4-oxido-2-oxo-1,2-dihydropyridin-3-yl)ureido)-3-(5-(2-methylbenzyl)thiophen-2-yl)propanoate]
31 | < 0.02 | Cn1ccc(O)c(NC(=O)N[C@@H](CC(=O)O)c2ccc(Cc3ccccc3)s2)c1=O [Compound 3-96, sodium (S)-3-(5-benzylthiophen-2-yl)-3-(3-(1-methyl-4-oxido-2-oxo-1,2-dihydro-pyridin-3-yl)ureido)propanoate]

From patent US10246451B2, “Propionic acid derivatives and methods of use thereof” (Aviara Pharmaceuticals, Inc., priority 2017, dated 2019)
